14 compounds from US20200404919A1, “USE OF HETEROARYL-TRIAZOLE AND HETEROARYL-TETRAZOLE COMPOUNDS AS PESTICIDES IN PLANT PROTECTION” (Bayer Aktiengesellschaft, priority 2018, published 2020) can be followed below.

Format in all cases: in vivo
The subject of test [1] is Phaedon cochleariae. Description: Phaedon cochleariae - spray test. The settings on record: in Brassica rapa, foliar, 168 h, read-out: mortality in %. The protocol: Phaedon cochleariae—Spray Test
(§1) To produce a suitable preparation of active compound, 1 part by weight of active compound is mixed with the stated amount of solvents and is diluted with water, containing an emulsifier concentration of 1000 ppm, to the desired concentration. Further test concentrations are prepared by dilution with emulsifier containing water.
Chinese cabbage (Brassica pekinensis) leaf disks are sprayed with a preparation of the active ingredient of the desired concentration. Once dry, the leaf disks are infested with mustard beetle larvae (Phaedon cochleariae).
After 7 days mortality in % is determined. 100% means all beetle larvae have been killed and 0% means none of the beetle larvae have been killed.

In test [2] the test system is Spodoptera frugiperda. Description: Spodoptera frugiperda - spray test. The settings on record: in Zea mays, 168 h, read-out: mortality in %. The protocol:
Spodoptera frugiperda—Spray Test
as §1
Maize (Zea mays) leaf sections are sprayed with a preparation of the active ingredient of the desired concentration. Once dry, the leaf sections are infested with fall armyworm larvae (Spodoptera frugiperda).
After 7 days mortality in % is determined. 100% means all caterpillars have been killed and 0% means none of the caterpillars have been killed.

The test system of test [3] is Myzus persicae. Description: Myzus persicae - oral test. The settings on record: 120 h, read-out: mortality in %. As for the experimental part: To produce a suitable preparation of active compound, 1 part by weight of active compound is mixed with the stated amount of solvent, and the concentrate is diluted with water to the desired concentration. 50 μl compound solution is filled in microtiter plates and 150 μl IPL41 insect medium (33%+15% sugar) is added to obtain a total volume of 200 μl per well. Afterwards the plates are sealed with parafilm through which a mixed population of the green peach aphid (Myzus persicae) can suck on the compound preparation.
(§2) After 5 days mortality in % is determined. 100% means all aphids have been killed and 0% means none of the aphids have been killed.

Test [4] concerns Aphis gossypii. Description: Aphis gossypii - oral test. The note with it: 120 h, read-out: mortality in %. The protocol: Solvent: 100 parts by weight acetone
To produce a suitable preparation of active compound, 1 part by weight of active compound is mixed with the stated amount of solvent, and the concentrate is diluted with water to the desired concentration.
50 μl compound solution is filled in microtiter plates and 150 μl IPL41 insect medium (33%+15% sugar) is added to obtain a total volume of 200 μl per well. Afterwards the plates are sealed with parafilm through which a mixed population of the cotton aphid (Aphis gossypii) can suck on the compound preparation.
as §2

The subject of test [5] is Diabrotica balteata. Description: Diabrotica balteata - spray test. The note with it: 168 h, 160 μg/well, germinated wheat seeds, larvae, after 7 days, read-out: efficacy in %. The protocol: Diabrotica balteata—Spray Test
(§3) To produce a suitable preparation of active compound, 1 part by weight of active compound is mixed with the stated amount of solvent, and the concentrate is diluted with water, containing an emulsifier concentration of 1000 ppm, to the desired concentration. Further test concentrations are prepared by dilution with emulsifier containing water.
Soaked wheat seeds (Triticum aestivum) are placed in a multiple well plate filled with agar and some water and are incubated for 1 day to germinate (5 seeds per well). The germinated wheat seeds are sprayed with a test solution containing the desired concentration of the active ingredient. Afterwards each unit is infected with 10-20 larvae of the banded cucumber beetle (Diabrotica balteata).
After 7 days efficacy in % is determined. 100% means all the seedlings have grown up like in the untreated, uninfected control; 0% means none of the seedlings have grown.

For test [6], the system named is Nezara viridula. Description: Nezara viridula - spray test 1. The settings on record: in Hordeum vulgare, 96 h, read-out: mortality in %. As for the experimental part: Nezara viridula—Spray Test 1
as §3
Barley plants (Hordeum vulgare) infested with larvae of the southern green stink bug (Nezara viridula) are sprayed with a test solution containing the desired concentration of the active ingredient.
After 4 days mortality in % is determined. 100% means all the stink bugs have been killed; 0% means none of the stink bugs have been killed.

Test [7] has as its system Nilaparvata lugens. Description: Nilaparvata lugens - spray test 1. The settings on record: in Oryza sativa, 96 h, read-out: mortality in %, 500 g/ha, rice plants, after 4 days. The protocol: Nilaparvata lugens—Spray Test 1
as §1
Rice plants (Oryza sativa) are sprayed with a preparation of the active ingredient of the desired concentration and the plants are infested with the brown planthopper (Nilaparvata lugens).
After 4 days mortality in % is determined. 100% means all planthoppers have been killed and 0% means none of the planthoppers have been killed.

For the compound `C[C@H](NC(=O)c1cc(Cl)cc(C(F)(F)F)c1)c1ncnn1-c1ccccn1` [Compound I-117, 3-chloro-N-[(1S)-1-[2-(2-pyridyl)-1,2,4-triazol-3-yl]ethyl]-5-(trifluoromethyl)benzamide], the mortality at 500 g/ha in test [1], in test [2], in test [6] and in test [7] was 100% each time. For the same compound, in test [3], the mortality at 20 ppm worked out at 100%. For the same compound, the mortality at 100 ppm in test [4] came out at 100%. Moreover, the pest or weed control at 160 µg/disc, 160 µg/well in test [5] is 100%.
In the case of `CC(c1ncnn1-c1ncccn1)N(C)C(=O)c1cc(Cl)cc(C(F)(F)F)c1` (stereo not drawn) [Compound I-100, 3-chloro-N-methyl-N-[1-(2-pyrimidin-2-yl-1,2,4-triazol-3-yl)ethyl]-5-(trifluoromethyl)benzamide], the mortality at 500 g/ha in test [1], in test [2], in test [6] and in test [7] was 100% each time. Besides, in test [3], the mortality at 20 ppm amounted to 100%. For the same compound, in test [4], the mortality at 100 ppm was 100%. Also, the pest or weed control at 160 µg/disc, 160 µg/well in test [5] turned out to be 100%.
For `CC(c1ncnn1-c1ncccn1)N(CC(F)F)C(=O)c1cccc(SC(F)(F)F)c1` (stereo not drawn) [Compound I-122], the mortality at 500 g/ha in test [1], in test [6] and in test [7] was 100% in each case. Further, in test [3], the mortality at 20 ppm worked out at 100%. Moreover, the mortality at 100 ppm in test [4] was found to be 100%. Besides, in test [5], the pest or weed control at 160 µg/disc, 160 µg/well was 100%.
`CC(c1ncnn1-c1ncccc1F)N(CC1CC1)C(=O)c1cc(Cl)cc(C(F)(F)F)c1` (stereo not drawn) [Compound I-106]: the mortality at 500 g/ha in test [1], in test [2], in test [6] and in test [7] was 100% in each case. Also, the mortality at 20 ppm in test [3] was determined as 100%. Besides, the mortality at 100 ppm in test [4] was 100%. In test [5], the pest or weed control at 160 µg/disc, 160 µg/well was found to be 100%.
On to `Cc1nc(C(C)N(CC2CC2)C(=O)c2cc(Cl)cc(C(F)(F)F)c2)n(-c2ncc(Cl)cn2)n1` (stereo not drawn) [Compound I-78, 3-chloro-N-[1-[2-(5-chloropyrimidin-2-yl)-5-methyl-1,2,4-triazol-3-yl]ethyl]-N-(cyclopropylmethyl)-5-(trifluoromethyl)benzamide], for which the mortality at 500 g/ha in test [1], in test [2], in test [6] and in test [7] was 100% in each case. For the same compound, the mortality at 20 ppm in test [3] was 100%. Further, in test [4], the mortality at 100 ppm is 100%. In test [5], the pest or weed control at 160 µg/disc, 160 µg/well was 100%.
`CC(c1ncnn1-c1ncccn1)N(Cc1ccccc1)C(=O)c1cc(Cl)cc(C(F)(F)F)c1` (stereo not drawn) [Compound I-99]: the mortality at 500 g/ha in test [1] stood at 100%; in test [2], 100%; in test [6], 100%; in test [7], 90%. Besides, the mortality at 20 ppm in test [3] came out at 100%. Besides, the mortality at 100 ppm in test [4] was 100%. Besides, the pest or weed control at 160 µg/disc, 160 µg/well in test [5] was 100%.
As to `CC(NC(=O)c1cccc(C#N)c1)c1ncnn1-c1ncccn1` (stereo not drawn) [Compound I-52], the mortality at 500 g/ha in test [1], in test [6] and in test [7] was 100% each time. Besides, the mortality at 20 ppm in test [3] was 90%. Further, the mortality at 100 ppm in test [4] worked out at 100%.
For the compound `CC(NC(=O)c1cncc(C(F)(F)F)c1)c1ncnn1-c1ncccn1` (stereo not drawn) [Compound I-115], the mortality at 500 g/ha in test [1] amounted to 100%; in test [2], 83%; in test [6] it was 100%; in test [7], 100%. For the same compound, the mortality at 20 ppm in test [3] was determined as 100%. Besides, the mortality at 100 ppm in test [4] stood at 100%. In addition, the pest or weed control at 160 µg/disc, 160 µg/well in test [5] came to 100%.
Regarding `CC(c1ncnn1-c1ncccn1)N(CCC(F)(F)F)C(=O)c1cc(Cl)cc(C(F)(F)F)c1` (stereo not drawn) [Compound I-26, 3-chloro-N-[1-(2-pyrimidin-2-yl-1,2,4-triazol-3-yl)ethyl]-5-(trifluoromethyl)-N-(3,3,3-trifluoropropyl)benzamide], the mortality at 500 g/ha was determined as 100% in test [1], 100% in test [2] and 90% in test [7]. Also, in test [3], the mortality at 20 ppm stood at 100%. Moreover, the mortality at 100 ppm in test [4] stood at 100%. In addition, the pest or weed control at 160 µg/disc, 160 µg/well in test [5] was 100%.
For `CC(c1ncnn1-c1ncccn1)N(CC1CC1)C(=O)c1cc(Br)cc(C(F)(F)F)c1` (stereo not drawn) [Compound I-62, 3-bromo-N-(cyclopropylmethyl)-N-[1-(2-pyrimidin-2-yl-1,2,4-triazol-3-yl)ethyl]-5-(trifluoromethyl)benzamide], the mortality at 500 g/ha in test [1] came out at 100%; in test [2], 100%; in test [6] it was 90%; in test [7], 90%. Moreover, the mortality at 20 ppm in test [3] came out at 100%. Besides, the mortality at 100 ppm in test [4] worked out at 100%. For the same compound, the pest or weed control at 160 µg/disc, 160 µg/well in test [5] is 100%.
`CC(c1ncnn1-c1ncccn1)N(CC(F)F)C(=O)c1cc(Cl)cc(OC(F)(F)F)c1` (stereo not drawn) [Compound I-121, 3-chloro-N-(2,2-difluoroethyl)-N-[1-(2-pyrimidin-2-yl-1,2,4-triazol-3-yl)ethyl]-5-(trifluoromethoxy)benzamide]: the mortality at 500 g/ha in test [1], in test [2], in test [6] and in test [7] was 100% in each case. In test [3], the mortality at 20 ppm came out at 100%. Moreover, in test [4], the mortality at 100 ppm was found to be 100%. In test [5], the pest or weed control at 160 µg/disc, 160 µg/well was 100%.
For the compound `CC(c1ncnn1-c1ncccn1)N(Cc1ccc(F)cc1)C(=O)c1cc(Cl)cc(C(F)(F)F)c1` (stereo not drawn) [Compound I-98], the mortality at 500 g/ha in test [1] is 100%; in test [2], 83%; in test [6] it was 100%; in test [7], 100%. The mortality at 20 ppm in test [3] turned out to be 100%. Moreover, the mortality at 100 ppm in test [4] turned out to be 100%. Besides, the pest or weed control at 160 µg/disc, 160 µg/well in test [5] was found to be 100%.
In the case of `C[C@H](NC(=O)c1cc(C(F)(F)F)cc(C(F)(F)F)c1)c1ncnn1-c1ncccn1` [Compound I-66, N-[(1S)-1-(2-pyrimidin-2-yl-1,2,4-triazol-3-yl)ethyl]-3,5-bis(trifluoromethyl)benzamide], the mortality at 500 g/ha in test [1], in test [2], in test [6] and in test [7] was 100% each time. In addition, the mortality at 20 ppm in test [3] worked out at 100%. In test [4], the mortality at 100 ppm came to 100%. In test [5], the pest or weed control at 160 µg/disc, 160 µg/well worked out at 100%.
Turning to `CC(c1ncnn1-c1ncccn1)N(CC1CC1)C(=O)c1cncc(C(F)(F)F)c1` (stereo not drawn) [Compound I-28, N-(cyclopropylmethyl)-N-[1-(2-pyrimidin-2-yl-1,2,4-triazol-3-yl)ethyl]-5-(trifluoromethyl)pyridine-3-carboxamide], the mortality at 500 g/ha in test [1], in test [6] and in test [7] was 100% in each case. Besides, the mortality at 20 ppm in test [3] came to 100%. In addition, the mortality at 100 ppm in test [4] came to 100%. For the same compound, the pest or weed control at 160 µg/disc, 160 µg/well in test [5] amounted to 100%.
